From article PMC7073886, “Structure–Bioactivity Relationships of Lapatinib Derived Analogs against Schistosoma mansoni” (ACS Medicinal Chemistry Letters, 2020)
In brackets after ≈: the same amount, converted by molar mass.

Experiments:
[1] = Aqueous pH 7.4 solubility; type: physicochemical; settings: aqueous buffer, thermodynamic from solid; phosphate buffer pH 7.4, 25 °C, 20-24 h; read-out: aq sol (aqueous solubility)
[2] = Human liver microsomal Clint; type: in vitro ADME; settings: for microsomal CLint: read-out: HLM Clint
[3] = Log D7.4 shake-flask octanol-water; type: physicochemical; settings: pH 7.4
[4] = Human plasma protein binding (equilibrium dialysis); type: in vitro ADME; settings: read-out: human PPB (plasma protein binding) (converted); for fraction unbound at 10 µM: pH 7.4, 37 °C; for fraction unbound: pH 7.4, 10 µM, 37 °C
[5] = test system: adult S. mansoni; assay: Phenotypic screen of adult S. mansoni worms, severity scores and descriptors; type: cell-based, Schistosoma mansoni; settings: for Descriptors (10 µM) 1 h / Severity Scores (10 μM) 1 h / Descriptors (10 µM) 5 h / Severity Scores (10 μM) 5 h / Descriptors (10 µM) 24 h / Severity Scores (10 μM) 24 h / Descriptors (10 µM) 48 h / Severity Scores (10 μM) 48 h: adult S. mansoni; for Descriptors (10 µM) 1 h / Descriptors (10 µM) 5 h / Descriptors (10 µM) 24 h / Descriptors (10 µM) 48 h: phenotypic descriptors; for Severity Scores (10 μM) 1 h / Severity Scores (10 μM) 5 h / Severity Scores (10 μM) 24 h / Severity Scores (10 μM) 48 h: scale 0 (no activity) to 4 (maximal activity); for bioactivity against adult S. mansoni: adult schistosomes; for Severity Scores (10 μM) 1 h / Severity Scores (10 μM) 5 h / Severity Scores (10 μM) 24 h / Severity Scores (10 μM) 48 h / bioactivity against adult S. mansoni: 10 μM
Method in brief: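 Adult S. mansoni (NMRI isolate, ≥42 days old) were co-incubated with compounds and changes in motility, density, shape and adherence recorded visually over time and concentration. Descriptors converted to severity scores from 0 (no activity) to 4 (maximal).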

[6] = Rat hepatocyte Clint; type: in vitro ADME; settings: rat hepatocytes, intrinsic clearance; for hepatocyte CLint: read-out: RH CLint
[7] = human liver microsomes, intrinsic clearance

Row | SMILES | solubility [1] [µM] | microsomal CLint [2, 7] [µL/min/mg] | logD [3] | fraction unbound at 10 µM [4] | Descriptors (10 µM) 1 h [5] | Severity Scores (10 μM) 1 h [5] | Descriptors (10 µM) 5 h [5] | Severity Scores (10 μM) 5 h [5] | Descriptors (10 µM) 24 h [5] | Severity Scores (10 μM) 24 h [5] | Descriptors (10 µM) 48 h [5] | Severity Scores (10 μM) 48 h [5] | bioactivity against adult S. mansoni [5] | hepatocyte CLint [6] [µL/min/1e6 cells] | fraction unbound [4] | improved metabolic stability in comparison to 8a ([2]; relative to 8a) [fold] | HLM Clint [2, 7] [μL/min/mg protein] | RH CLint [6] [µL/min/10^6 cells]
1 | c1cnc(Nc2ccnc3cc(-c4cnc(N5CCCNCC5)nc4)ccc23)cn1 [4g] | 53 (≈ 21.1 µg/mL) | 19 | 1.8 | 0.37 | none | 0 | none | 0 | none | 0 | none | 0 | bioactivity of this series was not observed | 4 |  |  |  | 
2 | CN1CCCN(c2ncc(-c3ccc4c(Nc5ccncn5)ccnc4c3)cn2)CC1 [5c] | 930 (≈ 384 µg/mL) | 74 | 2.2 | 0.34 | none | 0 | none | 0 | none | 0 | none | 0 | complete loss in activity | 82 |  |  |  | 
3 | COc1ccc(Nc2ccnc3cc(-c4ccc(S(=O)(=O)N5CCCN(C)CC5)cc4)ccc23)cc1Cl [5e] | 0.3 (≈ 0.161 µg/mL) | 300 | 4.4 | 0.01 | none | 0 | none | 0 | none | 0 | none | 0 | complete loss of bioactivity | 15 |  |  |  | 
4 | CN1CCCN(S(=O)(=O)c2ccc(-c3ccc4c(Nc5ccc(Cl)cn5)ccnc4c3)cc2)CC1 [5f] | 4 (≈ 2.03 µg/mL) | 300 | 4.5 | < 0.01 |  | 2 | S, on sides | 2 | Dark, S | 2 | Dark, S | 2 | moderate bioactivity recorded after 1 h | 30 |  |  |  | 
5 | Cc1ccc2[nH]c3c4ccc(-c5cnc(N6CCCN(C)CC6)nc5)cc4ncc3c2c1 [6c] | 14 (≈ 5.92 µg/mL) | 130 | 5 | < 0.01 |  | 3 |  | 4 |  | 4 |  | 4 | severe bioactivity after 1 h | 7 |  |  |  | 
6 | COc1ccc(NC(=O)c2ccc(-c3cnc(N4CCN(C)CC4)nc3)cc2O)cc1Cl [7a] | 5 (≈ 2.27 µg/mL) | 44 | 3.8 | < 0.01 | none | 0 | none | 0 | none | 0 |  |  | complete loss of activity | 300 |  |  |  | 
7 | COc1ccc(NC(=O)c2ccc(-c3ccc(S(=O)(=O)N4CCN(C)CC4)cc3)cc2O)cc1Cl [7c] | 6 (≈ 3.1 µg/mL) | 62 | 3.9 | < 0.01 | none | 0 |  | 3 |  | 2 |  |  | phenotypic response after 5 h | 300 |  |  |  | 
8 | COc1ccc(NC(=O)c2ccc(-c3cccc(N4CCOCC4)c3)cc2O)cc1Cl [7d] | 0.1 (≈ 0.0439 µg/mL) | 12 | 4.7 | < 0.01 | S, on sides | 2 | S, on sides | 2 | S, on sides, dark | 3 |  | 4 | phenotypic response after 1 h which increased in severity over time | 300 |  |  |  | 
9 | CCCN1CCCN(c2ncc(-c3cc4nccc(Nc5cnccn5)c4cc3C)cn2)CC1 [8d] |  |  | 3.2 |  |  | 1 |  | 1 |  | 3 |  | 3 | bioactivity being detected after 1 h | 35 | 0.12 |  |  | 
10 | Cc1cc2c(Nc3cnccn3)ccnc2cc1-c1cnc(N2CCCNCC2)nc1 [8e] |  |  | 2.3 |  | none | 0 | none | 0 | none | 0 | none | 0 | inactive against schistosomes | < 1 | 0.3 | 10 |  | 
11 | Cc1c(-c2cnc(N3CCCN(C)CC3)nc2)ccc2c(Nc3cnccn3)ccnc12 [9b] |  |  | 2.5 |  | none | 0 | none | 0 | none | 0 | none | 0 | no bioactivity | 27 | 0.18 |  |  | 
12 | CCCN1CCCN(c2ncc(-c3ccc4c(Nc5cnccn5)ccnc4c3C)cn2)CC1 [9d] |  |  | 3.3 |  |  | 1 |  | 1 | Unc, deg | 4 | Unc, deg | 4 | strongly bioactive by 24 h | 36 | 0.06 |  |  | 
13 | Cc1c(-c2cnc(N3CCCNCC3)nc2)ccc2c(Nc3cnccn3)ccnc12 [9e] |  |  | 1.6 |  |  | 0 |  | 2 |  | 4 |  | 4 | phenotypic response after 5 h | 5.3 | 0.24 |  |  | 
14 | Fc1cccc(COc2ccc(Nc3ncnc4ccc(-c5cccc(N6CCOCC6)c5)cc34)cc2Cl)c1 [compound 2] | < 1 |  |  | < 0.01 |  |  |  |  |  |  |  |  |  |  |  |  | 63 | 44
